Source: patent US20240109900A1, “AZABICYCLIC SHP2 INHIBITORS” (IRBM S.P.A., priority 2021, published 2024)
Read-outs that look alike come from different tables or passages of the source.

Legend:
[1] = target: SHP-2 enzyme (Met1-Leu525) (Homo sapiens (Human), UniProt Q06124); assay: SHP2 inhibition enzymatic assay; assay type: biochemical; conditions: 0.5 nM SHP-2 activated by 500 nM IRS1 peptide, 75 μM DiFMUP substrate; read-out: SHP2wt-IC50
How it was run: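 Compounds were preincubated 30 min with 0.5 nM SHP-2 (Met1-Leu525) plus 500 nM IRS1 activating peptide (pH 7.2 HEPES, 5 mM DTT), then 75 μM DiFMUP substrate reacted 30 min at room temperature. After bpV quench, DiFMUP fluorescence gave % inhibition; four-parameter logistic fit yielded IC50.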

[2] = test system: ERK phosphorylation in KYSE-520 cells; assay: Phospho-ERK cellular assay; assay type: cell-based; conditions: read-out: PERK IC50
How it was run: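 TR-FRET read-out of ERK1/2 Thr202/Tyr204 phosphorylation was taken after overnight antibody incubation at room temperature. Before that, KYSE-520 cells were treated 2 h at 37 °C with compound dilutions and lysed 30 min. Percent inhibition relative to vehicle and cell-free wells was fitted four-parametrically to give IC50.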

[3] = Homo sapiens, KYSE-520, 2 h, KYSE-520 cells, 2 h at 37° C., phospho-ERK1/2 (Thr202/Tyr204) TR-FRET
[4] = KYSE-520 cells, 2 h at 37° C., phospho-ERK1/2 (Thr202/Tyr204) TR-FRET

Chain of SHP-2 enzyme (Met1-Leu525) (Q06124 1-525): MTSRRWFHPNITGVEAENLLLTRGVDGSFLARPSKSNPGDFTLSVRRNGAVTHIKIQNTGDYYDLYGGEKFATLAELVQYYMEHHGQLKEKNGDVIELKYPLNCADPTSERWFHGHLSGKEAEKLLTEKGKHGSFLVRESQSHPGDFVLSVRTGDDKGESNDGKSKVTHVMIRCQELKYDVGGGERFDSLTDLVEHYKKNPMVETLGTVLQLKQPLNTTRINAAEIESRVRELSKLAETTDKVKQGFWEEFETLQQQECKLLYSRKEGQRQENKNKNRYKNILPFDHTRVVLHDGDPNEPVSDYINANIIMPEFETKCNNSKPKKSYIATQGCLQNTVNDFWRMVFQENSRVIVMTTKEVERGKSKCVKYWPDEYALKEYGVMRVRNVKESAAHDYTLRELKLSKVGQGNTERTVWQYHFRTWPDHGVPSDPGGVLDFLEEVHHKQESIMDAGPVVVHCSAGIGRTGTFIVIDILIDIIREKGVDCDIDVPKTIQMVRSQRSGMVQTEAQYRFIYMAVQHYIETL

Compound	IC50 [1]	IC50 ([2]; Homo sapiens, KYSE-520, 2 h)	IC50 [2, 3]	IC50 [2, 4]
NC[C@]1(c2ccccc2F)[C@@H]2CCN(c3cnc4c(-c5ccc(S(=O)(=O)F)c6ncccc56)n[nH]c4n3)C[C@@H]21 [Example 508, 5-(6-((1S,6R,7R)-7-(aminomethyl)-7-(2-fluorophenyl)-3-azabicyclo[4.1.0]heptan-3-yl)-1H-pyrazolo[3,4-b]pyrazin-3-yl)quinoline-8-sulfonyl fluoride]	< 0.5 µM	< 1 µM		
NC[C@]1(c2ccccc2F)[C@@H]2CCN(c3cnc4c(-c5ccnc(F)c5Cl)n[nH]c4n3)C[C@@H]21 [Example 509, ((1S,6R,7R)-3-(3-(3-chloro-2-fluoropyridin-4-yl)-1H-pyrazolo[3,4-b]pyrazin-6-yl)-7-(2-fluorophenyl)-3-azabicyclo[4.1.0]heptan-7-yl)methanamine]	< 0.5 µM		< 1 µM	
NC[C@]1(c2ccccc2)[C@@H]2CN(c3cnc4c(-c5ccc(F)c6ncccc56)n[nH]c4n3)C[C@@H]21 [Example 510, ((1R,5S,6s)-3-(3-(8-fluoroquinolin-5-yl)-1H-pyrazolo[3,4-b]pyrazin-6-yl)-6-phenyl-3-azabicyclo[3.1.0]hexan-6-yl)methanamine]	< 0.5 µM		< 1 µM	
Cn1ccc([C@@]2(CN)[C@@H]3CN(c4cnc5c(-c6ccc7nccnc7c6Cl)n[nH]c5n4)C[C@@H]32)n1 [Example 511, ((1R,5S,6r)-3-(3-(5-chloroquinoxalin-6-yl)-1H-pyrazolo[3,4-b]pyrazin-6-yl)-6-(1-methyl-1H-pyrazol-3-yl)-3-azabicyclo[3.1.0]hexan-6-yl)methanamine]	< 0.5 µM		< 1 µM	
Cc1csc([C@@]2(CN)[C@@H]3CN(c4cnc5c(-c6ccc(C(N)=O)cc6Cl)n[nH]c5n4)C[C@@H]32)n1 [Example 512]	< 0.5 µM			< 1 µM
Cc1nc([C@@]2(CN)[C@@H]3CN(c4cnc5c(-c6ccc7nn(C)cc7c6Cl)n[nH]c5n4)C[C@@H]32)co1 [Example 514, ((1R,5S,6r)-3-(3-(4-chloro-2-methyl-2H-indazol-5-yl)-1H-pyrazolo[3,4-b]pyrazin-6-yl)-6-(2-methyloxazol-4-yl)-3-azabicyclo[3.1.0]hexan-6-yl)methanamine]	< 0.5 µM		< 1 µM	
Cc1csc([C@@]2(CN)[C@@H]3CN(c4cnc5nc(Sc6ccnc(-n7cccn7)c6Cl)ccc5n4)C[C@@H]32)n1 [Example 515, ((1R,5S,6r)-3-(6-((3-chloro-2-(1H-pyrazol-1-yl)pyridin-4-yl)thio)pyrido[2,3-b]pyrazin-2-yl)-6-(4-methylthiazol-2-yl)-3-azabicyclo[3.1.0]hexan-6-yl)methanamine]	< 0.5 µM		< 1 µM	
Cc1csc([C@@]2(CN)[C@@H]3CN(c4cnc5c(-c6ccnc(N)c6Cl)n[nH]c5n4)C[C@@H]32)n1 [Example 517]	< 0.5 µM			< 1 µM
Cc1csc([C@@]2(CN)[C@@H]3CN(c4cnc5c(-c6ccc7nn(CC(F)(F)F)cc7c6Cl)n[nH]c5n4)C[C@@H]32)n1 [Example 518]	< 0.5 µM			< 1 µM
Cc1csc([C@@]2(CN)[C@@H]3CN(c4cnc5c(-c6ccncc6Cl)n[nH]c5n4)C[C@@H]32)n1 [Example 519]	< 0.5 µM			< 1 µM
CS(=O)(=O)c1ccc(-c2n[nH]c3nc(N4CC[C@@H]5[C@H](C4)[C@@]5(CN)c4ccccc4F)cnc23)c2cccnc12 [Example 521, ((1S,6R,7R)-7-(2-fluorophenyl)-3-(3-(8-(methylsulfonyl)quinolin-5-yl)-1H-pyrazolo[3,4-b]pyrazin-6-yl)-3-azabicyclo[4.1.0]heptan-7-yl)methanamine]	< 0.5 µM		< 1 µM	
NC[C@]1(c2ccccc2F)[C@@H]2CCN(c3cnc4c(-c5ccnc(-n6cccc6)c5Cl)n[nH]c4n3)C[C@@H]21 [Example 522, ((1S,6R,7R)-3-(3-(3-chloro-2-(1H-pyrrol-1-yl)pyridin-4-yl)-1H-pyrazolo[3,4-b]pyrazin-6-yl)-7-(2-fluorophenyl)-3-azabicyclo[4.1.0]heptan-7-yl)methanamine]	< 0.5 µM		< 1 µM	
NC[C@]1(c2ccccc2F)[C@@H]2CCN(c3cnc(Sc4ccc5nccnc5c4Cl)c(N)n3)C[C@@H]21 [Example 523, 6-((1S,6R,7R)-7-(aminomethyl)-7-(2-fluorophenyl)-3-azabicyclo[4.1.0]heptan-3-yl)-3-((5-chloroquinoxalin-6-yl)thio)pyrazin-2-amine]	< 0.5 µM		< 1 µM	
NC[C@]1(c2ccccc2F)[C@@H]2CCN(c3cnc(Sc4ccnc5ccccc45)c(N)n3)C[C@@H]21 [Example 524, 6-((1S,6R,7R)-7-(aminomethyl)-7-(2-fluorophenyl)-3-azabicyclo[4.1.0]heptan-3-yl)-3-(quinolin-4-ylthio)pyrazin-2-amine]	< 0.5 µM		> 5 µM	
NC[C@]1(c2ccccc2F)[C@@H]2CCN(c3cnc(Sc4ccc(C(N)=O)c5ncccc45)c(N)n3)C[C@@H]21 [Example 525, 5-((3-amino-5-((1S,6R,7R)-7-(aminomethyl)-7-(2-fluorophenyl)-3-azabicyclo[4.1.0]heptan-3-yl)pyrazin-2-yl)thio)quinoline-8-carboxamide]	< 0.5 µM		> 5 µM	
Cn1cnc2ccc(-c3ccc4nc(N5CC[C@@H]6[C@H](C5)[C@@]6(CN)c5cc(F)ccc5F)cnc4n3)cc21 [Example 527, ((1S,6R,7R)-7-(2,5-difluorophenyl)-3-(6-(1-methyl-1H-benzo[d]imidazol-6-yl)pyrido[2,3-b]pyrazin-2-yl)-3-azabicyclo[4.1.0]heptan-7-yl)methanamine]	< 0.5 µM		1 to 5 µM	
Cc1csc([C@@]2(CN)[C@@H]3CN(c4cnc5c(-c6ccc7nn(C8CC8)cc7c6Cl)n[nH]c5n4)C[C@@H]32)n1 [Example 528]	< 0.5 µM			< 1 µM
Cc1nccc(-c2ccc3nc(N4CC[C@@H]5[C@H](C4)[C@@]5(CN)c4ccccc4F)cnc3n2)c1F [Example 529]	< 0.5 µM		< 1 µM	
NC[C@]1(c2ccccc2F)[C@@H]2CCN(c3cnc4nc(-c5ccnc(-n6cccn6)c5)ccc4n3)C[C@@H]21 [Example 530, ((1S,6R,7R)-3-(6-(2-(1H-pyrazol-1-yl)pyridin-4-yl)pyrido[2,3-b]pyrazin-2-yl)-7-(2-fluorophenyl)-3-azabicyclo[4.1.0]heptan-7-yl)methanamine]	< 0.5 µM		> 5 µM	
